Converted amounts (≈) assume the structure as drawn. Where two headings read alike, the source gives them in different places.
How the values were obtained:
Assay type in all cases: cell-based
[1] = test system: HCT-116 colorectal cancer cell line; assay: CCK-8 proliferation inhibition; details: Homo sapiens, HCT-116, 72 h, read-out: HCT116 inhibition rate/%
Procedure: (1) HCT-116 colorectal cancer cell line, A549 lung cancer cell line, MGC-803 gastric cancer cell line, BEL-7402 liver cancer cell line, Jurkat T cell leukemia cell line, HL60 acute myeloid leukemia cell line, Hela cervical cancer cell line, MCF-7 breast cancer cell line, PC3 prostate cancer cell line and SAOS-2 osteosarcoma cell line were made into single cell suspension, 180 μL of which was inoculated into 96-well culture plate, which was cultured overnight in CO2 incubator (37° C., 5% CO2, 95% air).
(2) Each of the spiro three-membered ring, spiro five membered ring peptide deformylase inhibitors was dissolved in DMSO, and was further formulated into drug solution with required different final concentration using corresponding cell culture medium. The drug solutions were added to the above cells respectively (20 μL/well), with the control group added with 1‰ DMSO, and cultured in a CO2 incubator for 72 hours.
(3) After incubation for 72 hours, the culture solution was decanted, and 100 μL of 1:10 diluted CCK-8 solution was added.
Wherein, in step (1), the concentration of the single cell suspension was 2000 cells/well.
Wherein, in step (2), HCT-116 cells were cultured in McCoy's 5A medium (containing 10% newborn bovine serum, 1% double antibody); A549 and PC3 cells were cultured in F12 medium (containing 10% newborn bovine serum, 1% double antibody); MGC-803, BEL-7402, SAOS-2, Jurkat and HL60 cells were cultured in 1640 medium (containing 10% newborn bovine serum, 1% double antibody); and MCF-7 and Hela cells were cultured in DMEM high glucose medium (containing 10% newborn bovine serum, 1% double antibody).

[2] = test system: methicillin-sensitive Staphylococcus aureus (MSSA); assay: MIC, two-fold agar dilution (CLSI), clinical isolates
Description: (§1) 1. The invention adopts the two-fold agar dilution method recommended by the operating procedure of antimicrobial susceptibility testing set by American Clinical and Laboratory Standards Institute (CLSI) to determine the Minimum Inhibitory Concentration (MIC) of the test samples against the tested strains.

[3] = test system: methicillin-resistant Staphylococcus epidermidis (MRSE); assay: as above
Description: as §1

[4] = test system: methicillin-sensitive Staphylococcus epidermidis (MSSE); assay: as above
Description: as §1

[5] = test system: Enterococcus faecalis (EFA); assay: as above
Description: as §1

[6] = test system: methicillin-resistant Staphylococcus aureus (MRSA); assay: as above
Description: as §1

[7] = test system: Escherichia coli (including ESBLs, non-ESBLs); assay: as above
Description: as §1

[8] = strain printed MRSA 14-1 (second line of that name, r23, before MRSE 14-2)

Row | Compound | MIC (anti-bacterial activity) ([2]; strain MSSA 14-1) [µg/mL] | MIC (anti-bacterial activity) ([2]; strain MSSA 14-2) [µg/mL] | MIC (anti-bacterial activity) ([2]; strain MSSA 14-3) [µg/mL] | MIC (anti-bacterial activity) ([2]; strain MSSA 14-4) [µg/mL] | MIC (anti-bacterial activity) ([3]; strain MRSE 14-2) [µg/mL] | MIC (anti-bacterial activity) ([3]; strain MRSE 14-3) [µg/mL] | MIC (anti-bacterial activity) ([3]; strain MRSE 14-4) [µg/mL] | MIC (anti-bacterial activity) ([4]; strain MSSE 14-1) [µg/mL] | MIC (anti-bacterial activity) ([4]; strain MSSE 14-2) [µg/mL] | MIC (anti-bacterial activity) ([4]; strain MSSE 14-3) [µg/mL] | MIC (anti-bacterial activity) ([4]; strain MSSE 14-4) [µg/mL] | MIC (anti-bacterial activity) ([5]; strain EFA 14-1) [µg/mL] | MIC (anti-bacterial activity) ([5]; strain EFA 14-2) [µg/mL] | MIC (anti-bacterial activity) ([5]; strain EFA 14-3) [µg/mL] | MIC (anti-bacterial activity) ([5]; strain EFA 14-5) [µg/mL] | MIC (anti-bacterial activity) ([6]; strain MRSA 14-1) [µg/mL] | MIC (anti-bacterial activity) ([6]; strain MRSA 14-2) [µg/mL] | MIC (anti-bacterial activity) ([6]; strain MRSA 14-4) [µg/mL] | MIC (anti-bacterial activity) ([6]; strain MRSA 14-5) [µg/mL] | MIC (anti-bacterial activity) [6, 8] [µg/mL] | also measured
1 | CCCC[C@H](CN(O)C=O)C(=O)N1CC2(CC2)C[C@H]1C(=O)Nc1cc[nH]n1 [Example 1] | 16 (≈ 42.4 µM) | 16 (≈ 42.4 µM) | 16 (≈ 42.4 µM) | 16 (≈ 42.4 µM) | 8 (≈ 21.2 µM) | 4 (≈ 10.6 µM) | 8 (≈ 21.2 µM) | 4 (≈ 10.6 µM) | 16 (≈ 42.4 µM) | 4 (≈ 10.6 µM) | 4 (≈ 10.6 µM) | 64 (≈ 170 µM) | 64 (≈ 170 µM) | 64 (≈ 170 µM) | > 128 | 16 (≈ 42.4 µM) | 32 (≈ 84.8 µM) | 16 (≈ 42.4 µM) | 8 (≈ 21.2 µM) | 8 (≈ 21.2 µM) | inhibition at 30 µM [1]: 7%; MIC (anti-bacterial activity) ([7]; strain ECO+ 14-1): 16 µg/mL (≈ 42.4 µM); MIC (anti-bacterial activity) ([7]; strain ECO+ 14-2): 128 µg/mL (≈ 339 µM); MIC (anti-bacterial activity) ([7]; strain ECO− 14-1): > 128 µg/mL; MIC (anti-bacterial activity) ([7]; strain ECO− 14-2): > 128 µg/mL
2 | CCCC[C@H](CN(O)C=O)C(=O)N1CC2(CC2)C[C@H]1C(=O)Nc1ncccc1F [Example 5] | 0.5 (≈ 1.23 µM) | 0.5 (≈ 1.23 µM) | 0.5 (≈ 1.23 µM) | 0.5 (≈ 1.23 µM) | 0.25 (≈ 0.615 µM) | 0.125 (≈ 0.308 µM) | 0.5 (≈ 1.23 µM) | 0.125 (≈ 0.308 µM) | 0.25 (≈ 0.615 µM) | 0.25 (≈ 0.615 µM) | 0.25 (≈ 0.615 µM) | 2 (≈ 4.92 µM) | 2 (≈ 4.92 µM) | 2 (≈ 4.92 µM) | 2 (≈ 4.92 µM) | 0.5 (≈ 1.23 µM) | 0.5 (≈ 1.23 µM) | 0.5 (≈ 1.23 µM) | 0.25 (≈ 0.615 µM) | 0.25 (≈ 0.615 µM) | inhibition at 30 µM ([1]; concentration of 30 μM, 72 hours, CCK-8): -15%; MIC (anti-bacterial activity) ([7]; strain ECO+ 14-1): 2 µg/mL (≈ 4.92 µM); MIC (anti-bacterial activity) ([7]; strain ECO+ 14-2): 64 µg/mL (≈ 157 µM); MIC (anti-bacterial activity) ([7]; strain ECO− 14-1): > 64 µg/mL; MIC (anti-bacterial activity) ([7]; strain ECO− 14-2): 64 µg/mL (≈ 157 µM)
